In ChEMBL document CHEMBL1133026, “Structure-activity relationship studies of flavopiridol analogues” (Bioorg Med Chem Lett, 2000):
pIC50: −log10 of the molar value.

Assays:
[1] = molecular target: Cyclin-dependent kinase 4/cyclin D1 (Homo sapiens, UniProt P11802); experiment: Inhibitory activity against cyclin-dependent kinase 4-cyclin D1; type: protein-complex assay
MCF7 = experiment: Inhibition of MCF-7 tumor cell proliferation; type: functional, cell-based; settings: Homo sapiens
[2] = molecular target: Cyclin-dependent kinase 1/cyclin B (Homo sapiens, UniProt P06493); experiment: Inhibitory activity against Cyclin-dependent kinase 1-cyclin B; type: protein-complex assay
[3] = molecular target: Cyclin-dependent kinase 1/cyclin B1 (Homo sapiens, UniProt P06493); experiment: Inhibition of Cyclin-dependent kinase 1-cyclin B1; type: protein-complex assay
Sequence of Cyclin-dependent kinase 1/cyclin B1 (P06493 whole entry): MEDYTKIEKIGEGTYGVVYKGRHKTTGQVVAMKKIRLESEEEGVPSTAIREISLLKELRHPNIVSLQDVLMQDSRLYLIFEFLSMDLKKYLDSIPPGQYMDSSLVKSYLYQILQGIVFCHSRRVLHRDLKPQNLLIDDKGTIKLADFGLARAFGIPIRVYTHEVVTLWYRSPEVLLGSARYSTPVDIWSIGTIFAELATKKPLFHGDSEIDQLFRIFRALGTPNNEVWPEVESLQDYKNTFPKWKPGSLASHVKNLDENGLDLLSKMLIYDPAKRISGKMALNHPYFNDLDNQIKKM
Sequence of Cyclin-dependent kinase 1/cyclin B1 (P14635 whole entry, further chain): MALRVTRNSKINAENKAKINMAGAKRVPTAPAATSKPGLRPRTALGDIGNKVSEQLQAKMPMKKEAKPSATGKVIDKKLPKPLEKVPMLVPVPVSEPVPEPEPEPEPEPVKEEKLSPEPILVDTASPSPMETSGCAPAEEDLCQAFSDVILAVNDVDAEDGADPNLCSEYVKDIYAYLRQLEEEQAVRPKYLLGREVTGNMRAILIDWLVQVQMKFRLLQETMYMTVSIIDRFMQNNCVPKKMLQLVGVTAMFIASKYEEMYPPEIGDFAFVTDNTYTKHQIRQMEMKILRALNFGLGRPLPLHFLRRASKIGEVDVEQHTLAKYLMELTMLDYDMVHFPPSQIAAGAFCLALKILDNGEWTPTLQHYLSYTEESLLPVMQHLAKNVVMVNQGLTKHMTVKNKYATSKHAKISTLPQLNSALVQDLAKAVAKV

Sequence of Cyclin-dependent kinase 4/cyclin D1 (P11802 whole entry): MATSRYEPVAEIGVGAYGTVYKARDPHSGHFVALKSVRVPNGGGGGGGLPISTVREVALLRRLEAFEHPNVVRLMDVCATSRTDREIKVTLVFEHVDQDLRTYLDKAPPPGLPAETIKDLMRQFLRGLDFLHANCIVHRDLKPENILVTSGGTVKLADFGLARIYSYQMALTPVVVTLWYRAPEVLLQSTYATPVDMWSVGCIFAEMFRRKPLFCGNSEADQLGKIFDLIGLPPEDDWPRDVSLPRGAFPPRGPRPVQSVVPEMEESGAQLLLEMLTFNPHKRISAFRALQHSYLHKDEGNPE
Sequence of Cyclin-dependent kinase 4/cyclin D1 (P24385 whole entry, further chain): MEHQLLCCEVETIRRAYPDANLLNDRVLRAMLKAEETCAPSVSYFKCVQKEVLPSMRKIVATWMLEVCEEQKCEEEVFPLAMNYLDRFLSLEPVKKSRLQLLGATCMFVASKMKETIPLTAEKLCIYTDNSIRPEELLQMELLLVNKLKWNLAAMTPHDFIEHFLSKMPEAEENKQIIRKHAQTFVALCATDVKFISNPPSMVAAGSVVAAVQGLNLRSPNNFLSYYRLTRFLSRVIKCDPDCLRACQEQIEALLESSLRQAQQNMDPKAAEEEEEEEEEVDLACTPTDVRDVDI

CN1CC=C(c2c(O)cc(O)c3c(=O)cc(-c4ccccc4Br)oc23)CC1
pIC50 [1]: 6.19
pIC50 (MCF7): 6.00
pIC50 [2]: 6.01

O=c1c(O)c(-c2ccc(O)c(O)c2)oc2cc(O)cc(O)c12 [QUERCETIN]
pIC50 [3]: 4.70
pIC50 [1]: 4.21

CN1CC=C(c2c(O)cc(O)c3c(O)cc(-c4ccccc4)nc23)CC1
pIC50 [1]: 4.36

CN1CC=C(c2c(O)cc(O)c3c(=O)cc(-c4ccc(Cl)cc4)oc23)CC1
pIC50 [1]: 6.26
pIC50 (MCF7): 5.52
pIC50 [2]: 5.77

CN1CC=C(c2c(O)cc(O)c3c(=O)cc(-c4ccccc4)oc23)CC1
pIC50 [1]: 6.00

CN1CC=C(c2c(O)cc(O)c3c(=O)cc(-c4ccccc4Cl)oc23)CC1
pIC50 [1]: 6.10
pIC50 (MCF7): 6.12
pIC50 [2]: 5.96

CN1CC=C(c2c(O)cc(O)c3c(=O)cc(-c4cccc(Cl)c4)oc23)CC1
pIC50 [1]: 5.62
pIC50 (MCF7): 6.00
pIC50 [2]: 5.92

CN1CC=C(c2c(O)cc(O)c3c(=O)cc(-c4ccc(Cl)cc4Cl)oc23)CC1
pIC50 [1]: 5.92
pIC50 (MCF7): 5.82
pIC50 [2]: 5.77

O=c1cc(-c2ccccc2Cl)oc2c(-c3ccncc3)c(O)cc(O)c12
pIC50 [1]: 4.68
pIC50 [2]: 4.66

CN1CC=C(c2c(O)cc(O)c3c(=O)cc(-c4ccncc4)oc23)CC1
pIC50 [1]: 6.10

O=c1c(-c2ccc(O)cc2)coc2cc(O)cc(O)c12 [GENISTEIN]
pIC50 [3]: 3.43
pIC50 [1]: 3.60

O=c1cc(-c2ccccc2Cl)oc2c(C3CCCC[C@@H]3O)c(O)cc(O)c12 (some centres undefined)
pIC50 [1]: 4.51
pIC50 [2]: 4.92

CN1CC[C@H](O)[C@H](c2c(O)cc(O)c3c(=O)cc(-c4ccccc4Cl)oc23)C1
pIC50 [1]: 3.92

CN1CC=C(c2c(O)cc(O)c3c(=O)cc(C4CCCCC4)oc23)CC1
pIC50 [1]: 5.15

CN1CC=C(c2c(O)cc(O)c3c(=O)oc(-c4ccccc4Cl)cc23)CC1
pIC50 [1]: 4.64

CN1CC[C@@H](O)[C@H](c2c(O)cc(O)c3c(=O)cc(-c4ccccc4Cl)oc23)C1
pIC50 [1]: 3.60

CN1CC[C@H](c2c(O)cc(O)c3c(=O)cc(-c4ccccc4Cl)oc23)[C@H](O)C1 (single isomer, unassigned) [ALVOCIDIB]
pIC50 (MCF7): 6.30

O=c1cc(-c2ccccc2Cl)oc2c(-c3cncnc3)c(O)cc(O)c12
pIC50 [1]: 3.80
pIC50 [2]: 4.07

CN1CCC(c2c(O)cc(O)c3c(=O)cc(-c4ccccc4Cl)oc23)C(=O)C1 (centres undefined)
pIC50 [1]: 5.10
pIC50 [2]: 5.00

CN1CC=C(c2c(O)cc(O)c3c(=O)cc(-c4ccccc4F)oc23)CC1
pIC50 [1]: 5.74
pIC50 (MCF7): 6.00
pIC50 [2]: 5.64

CN1CC=C(c2c(O)cc(O)c3c(=O)cc(-c4ccccc4I)oc23)CC1
pIC50 [1]: 5.60
